From article PMC9437035, “Decoding the olfactory map through targeted transcriptomics links murine olfactory receptors to glomeruli” (Nature Communications, 2022)
pEC50: −log10 of the molar value.

Legend:
Olfr1377 [1] = target: T1, Olfr1377 (Mus musculus, UniProt B2RQ46); experiment: CRE-luciferase reporter assay in Hana3A cells; format: cell-based; parameters: expressed from plasmid in Hana3A cells with RTP1S and M3R
T1 sequence (B2RQ46 1-307): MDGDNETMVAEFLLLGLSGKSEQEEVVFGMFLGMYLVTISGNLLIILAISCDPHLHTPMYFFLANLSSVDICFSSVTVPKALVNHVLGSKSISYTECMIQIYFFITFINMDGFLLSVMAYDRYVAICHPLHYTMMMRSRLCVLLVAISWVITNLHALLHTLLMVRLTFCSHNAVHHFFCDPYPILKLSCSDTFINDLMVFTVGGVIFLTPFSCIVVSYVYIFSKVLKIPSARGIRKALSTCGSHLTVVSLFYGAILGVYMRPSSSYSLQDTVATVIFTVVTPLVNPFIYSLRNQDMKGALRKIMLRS

Olfr1377 [2] = target: T1, Olfr1377; experiment: in vivo two-photon GCaMP6s imaging of the receptor-tagged glomerulus; parameters: native receptor in mKate2-labelled olfactory sensory neurons (IRES-mKate2 after the CDS, receptor unaltered); conditions: agonist; estimated delivered odorant concentration (olfactometer), anesthetized mice
Olfr1377 [3] = target: T1, Olfr1377; experiment: as above; parameters: native receptor in mKate2-labelled olfactory sensory neurons (IRES-mKate2 after the CDS, receptor unaltered); conditions: agonist; inhaled odorant on the order of 10^0 nM, anesthetized mice
Olfr881 = target: T2, Olfr881 (Mus musculus, UniProt Q8VF63); experiment: in vivo two-photon GCaMP6s imaging of the receptor-tagged glomerulus; pS6-IP RNA-Seq; conditions: agonist; inhaled odorant, anesthetized mice (imaging)
T2 construct: gene Or8b35; native receptor in mKate2-labelled olfactory sensory neurons (IRES-mKate2 after the CDS, receptor unaltered)
T2 sequence (Q8VF63 1-314): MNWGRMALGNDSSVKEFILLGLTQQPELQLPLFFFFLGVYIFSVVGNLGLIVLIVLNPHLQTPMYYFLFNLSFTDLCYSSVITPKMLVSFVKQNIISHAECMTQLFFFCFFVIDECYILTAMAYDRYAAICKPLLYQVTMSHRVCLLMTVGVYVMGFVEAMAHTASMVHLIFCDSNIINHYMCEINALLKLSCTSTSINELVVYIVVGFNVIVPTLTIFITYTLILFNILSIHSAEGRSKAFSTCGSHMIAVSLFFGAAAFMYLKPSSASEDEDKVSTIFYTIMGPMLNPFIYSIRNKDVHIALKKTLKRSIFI

Row | SMILES | pEC50 (Olfr1377 [1]) | glomerular response to odorant (Olfr1377 [3]) | also measured
1 | CC(=O)c1ccccc1O [2′-hydroxyacetophenone] | 3.52 |  | 
2 | COc1ccc(C(C)=O)cc1 [4-methoxyacetophenone] | 8.10 |  | in vivo response threshold (Olfr1377 [2]): ~ 10^−13 M
3 | CC(=O)C=C(C)C [4-methyl-3-penten-2-one] |  | Olfr1377 showed strong responses to p-anisaldehyde, acetophenone, and the aliphatic ketone 4-methyl-3-penten-2-one | 
4 | CC(=O)c1ccc(C)cc1 [4-methylacetophenone] | 6.00 |  | in vivo two-photon GCaMP6s imaging of the receptor-tagged glomerulus; pS6-IP RNA (Olfr881): both Olfr1377 and Olfr881 exhibited robust responses to low concentrations of 4-methylacetophenone
5 | CC(=O)c1ccccc1 [acetophenone] | 5.00 |  | 
6 | COc1ccc(C=O)cc1 [p-anisaldehyde] |  | Olfr1377 showed strong responses to p-anisaldehyde, acetophenone, and the aliphatic ketone 4-methyl-3-penten-2-one | 
